Data published in ChEMBL document CHEMBL3804812, “Design, Syntheses, and Anti-TB Activity of 1,3-Benzothiazinone Azide and Click Chemistry Products Inspired by BTZ043” (ACS Med Chem Lett, 2016).
Converted amounts (≈) assume the structure as drawn. The source made the active and inactive calls. The calls are words filed in the database; no cut-off is given here.

Key:
[1] = target: T1, Decaprenylphosphoryl-beta-D-ribose oxidase (Mycobacterium tuberculosis (strain ATCC 25618 / H37Rv)) (UniProt P9WJF1); test: Reversible inhibition of recombinant Mycobacterium tuberculosis H37Rv DprE1 using FPR as substrate assessed as residual enzymatic activity preincubated for 10 mins followed by substrate addition by fluorescence assay
T1 sequence (whole entry): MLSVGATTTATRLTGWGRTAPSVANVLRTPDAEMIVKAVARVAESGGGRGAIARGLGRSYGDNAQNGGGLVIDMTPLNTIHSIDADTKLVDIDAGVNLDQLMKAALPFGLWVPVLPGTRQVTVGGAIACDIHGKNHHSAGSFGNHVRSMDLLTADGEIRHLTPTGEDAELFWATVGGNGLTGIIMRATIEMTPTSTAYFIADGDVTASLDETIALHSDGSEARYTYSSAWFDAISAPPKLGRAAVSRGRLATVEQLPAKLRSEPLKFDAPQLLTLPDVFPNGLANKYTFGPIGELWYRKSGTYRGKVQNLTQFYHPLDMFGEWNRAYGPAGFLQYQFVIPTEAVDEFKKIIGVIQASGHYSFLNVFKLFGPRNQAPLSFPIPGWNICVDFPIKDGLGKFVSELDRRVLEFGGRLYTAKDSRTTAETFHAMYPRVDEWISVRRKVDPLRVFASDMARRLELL

[2] = target: T2, Decaprenylphosphoryl-beta-D-ribose oxidase (Mycobacterium tuberculosis (strain ATCC 25618 / H37Rv), UniProt P9WJF1); test: Inhibition of recombinant Mycobacterium tuberculosis H37Rv DprE1 using FPR as substrate assessed as residual enzymatic activity preincubated for 10 mins followed by substrate addition by fluorescence assay
T2 sequence (P9WJF1 whole entry): T1 sequence (whole entry)

[3] = target: T3, Decaprenylphosphoryl-beta-D-ribose oxidase (Mycobacterium smegmatis (strain ATCC 700084 / mc(2)155)) (UniProt A0R607); test: Inhibition of DprE1 in P-14C-RPP-labelled Mycobacterium smegmatis MC2 155 cell membranes assessed as supression of conversion of decaprenylphosphoryl ribose to decaprenylphosphoryl arabinose after 1 hr by TLC analysis; assay type: cell-based; conditions: Mycolicibacterium smegmatis MC2 155
T3 sequence (whole entry): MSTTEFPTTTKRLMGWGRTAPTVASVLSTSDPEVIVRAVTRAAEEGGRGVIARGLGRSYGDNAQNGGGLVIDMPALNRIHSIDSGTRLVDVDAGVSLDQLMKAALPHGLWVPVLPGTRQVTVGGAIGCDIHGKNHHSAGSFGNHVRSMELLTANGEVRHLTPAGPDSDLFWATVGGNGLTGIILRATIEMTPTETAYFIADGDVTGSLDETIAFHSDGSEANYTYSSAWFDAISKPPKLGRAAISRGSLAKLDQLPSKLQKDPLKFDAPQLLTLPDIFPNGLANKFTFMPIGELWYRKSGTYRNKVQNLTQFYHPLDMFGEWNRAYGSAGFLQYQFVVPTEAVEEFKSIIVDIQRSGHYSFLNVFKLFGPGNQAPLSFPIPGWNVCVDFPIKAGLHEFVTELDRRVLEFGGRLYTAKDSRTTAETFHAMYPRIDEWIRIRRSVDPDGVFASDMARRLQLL

[4] = test system: Mycobacterium tuberculosis; test: Antibacterial activity against Mycobacterium tuberculosis H37Rv in 7H12 medium by microplate alamar blue assay; assay type: functional; conditions: for MIC: Mycobacterium tuberculosis, H37Rv
[5] = test system: Mycobacterium tuberculosis; test: Antibacterial activity against Mycobacterium tuberculosis H37Rv in GAS medium by microplate alamar blue assay; assay type: functional; conditions: for MIC: Mycobacterium tuberculosis, H37Rv
[6] = test system: Mycobacterium tuberculosis; test: Antibacterial activity against Mycobacterium tuberculosis H37Rv in 7H12 medium at >1uM by microplate alamar blue assay; assay type: functional
[7] = test system: Mycobacterium tuberculosis; test: Antibacterial activity against Mycobacterium tuberculosis H37Rv in GAS medium at >1uM by microplate alamar blue assay; assay type: functional
[8] = target: T1, Decaprenylphosphoryl-beta-D-ribose oxidase (Mycobacterium tuberculosis (strain ATCC 25618 / H37Rv)); test: Irreversible inhibition of recombinant Mycobacterium tuberculosis H37Rv DprE1 using FPR as substrate assessed as residual enzymatic activity preincubated for 10 mins followed by substrate addition by fluorescence assay

With `C[C@H]1COC2(CCN(c3nc(=O)c4cc(C(F)(F)F)cc(N=[N+]=[N-])c4s3)CC2)O1` the inhibition [1] was “Active”, the IC50 [2] was 9.6 µM and the inhibition [3] was “inactive”. It also gave an MIC [4] of 0.47 µM (≈ 0.201 µg/mL) and an MIC [5] of 0.46 µM (≈ 0.197 µg/mL).
With `C[C@H]1COC2(CCN(c3nc(=O)c4cc(C(F)(F)F)cc(-n5cc(Cc6ccccc6)nn5)c4s3)CC2)O1` the “growth inhibition (GI)” value [6] was 0%, the MIC [4] was 9.9 µM (≈ 5.38 µg/mL) and the MIC [5] was 9.27 µM (≈ 5.04 µg/mL). The “growth inhibition (GI)” value [7] was 0%.
With `CCOC(=O)c1cn(-c2cc(C(F)(F)F)cc3c(=O)nc(N4CCC5(CC4)OC[C@H](C)O5)sc23)nn1` the MIC [4] was 0.93 µM (≈ 0.489 µg/mL), the MIC [5] was greater than 1 µM and the “growth inhibition (GI)” value [7] was 34%.
With `C[C@H]1COC2(CCN(c3nc(=O)c4cc(C(F)(F)F)ccc4s3)CC2)O1` the inhibition [3] was “inactive”, the MIC [4] was greater than 100 µM and the MIC [5] was 8.68 µM (≈ 3.35 µg/mL).
With `C[C@H]1COC2(CCN(c3nc(=O)c4cc(C(F)(F)F)cc(N)c4s3)CC2)O1` the “growth inhibition (GI)” value [6] was 87%, the “inhibition (INH)” value [4] was 12% and the MIC [4] was greater than 10 µM. For the same compound, the “inhibition (INH)” value [5] was 10%, the MIC [5] was greater than 10 µM and the “growth inhibition (GI)” value [7] was 0%.
`C[C@H]1COC2(CCN(c3nc(=O)c4cc(C(F)(F)F)cc([N+](=O)[O-])c4s3)CC2)O1` [BTZ-043] was tested, and the inhibition [8] was “Active”, the inhibition [3] was “Active” and the MIC [4] was less than 0.004 µM. The MIC [5] was less than 0.004 µM.
`CO[C@H]1/C=C/O[C@@]2(C)Oc3c(C)c(O)c4c(O)c(c(/C=N/N5CCN(C)CC5)c(O)c4c3C2=O)NC(=O)/C(C)=C\C=C\[C@H](C)[C@H](O)[C@@H](C)[C@@H](O)[C@@H](C)[C@H](OC(C)=O)[C@@H]1C` [RIFAMPIN] showed an MIC [4] of 0.05 µM (≈ 0.0411 µg/mL) and an MIC [5] of 0.04 µM (≈ 0.0329 µg/mL).
`C[C@H]1COC2(CCN(c3nc(=O)c4cc(C(F)(F)F)cc(-n5cc(CN(C)C)nn5)c4s3)CC2)O1` showed an MIC [4] of 0.87 µM (≈ 0.444 µg/mL) and an MIC [5] of 0.95 µM (≈ 0.485 µg/mL).
